Measured values from ChEMBL document CHEMBL5143734, “Seco-Lupane Triterpene Derivatives Induce Ferroptosis through GPX4/ACSL4 Axis and Target Cyclin D1 to Block the Cell Cycle” (J Med Chem, 2022).
pIC50: −log10 of the molar value.

Experiments:
Format in all cases: functional, cell-based
[1] = tested on: MCF7; assay: Cytotoxicity against human MCF7 cells assessed as reduction in cell viability by CCK-8 assay
[2] = tested on: A549; assay: Cytotoxicity against human A549 cells assessed as reduction in cell viability by CCK-8 assay
[3] = tested on: HepG2; assay: Cytotoxicity against human HepG2 cells assessed as reduction in cell viability by CCK-8 assay
[4] = tested on: PC-3M; assay: Cytotoxicity against human PC-3M cells assessed as reduction in cell viability by CCK-8 assay
[5] = tested on: PANC-1; assay: Cytotoxicity against human PANC-1 cells assessed as reduction in cell viability by CCK-8 assay

SMILES	pIC50 [1]	pIC50 [2]	pIC50 [3]	pIC50 [4]	pIC50 [5]
C=C(C)[C@@H]1CC[C@]2(C(=O)OCCCCCCn3ccnc3)CC[C@]3(C)[C@H](C[C@@H](O)[C@@H]4[C@@]5(C)C(CC(=O)OC)OC(C)(C)C5CC[C@]43C)[C@@H]12 (stereo not given in full)	4.34	4.58	4.80	4.70	4.59
C=C(C)[C@@H]1CC[C@]2(C(=O)OCCCCCCCCCCBr)CC[C@]3(C)[C@H](C[C@H]4OC(=O)C[C@@H](O)[C@]5(C)[C@@H]4[C@@]3(C)CC[C@H]5C(=C)C)[C@@H]12	4.27	4.66	4.96	4.76	4.64
C=C(C)[C@@H]1CC[C@]2(C(=O)OCCCCCn3ccnc3)CC[C@]3(C)[C@H](C[C@@H](O)[C@@H]4[C@@]5(C)C(CC(=O)OC)OC(C)(C)C5CC[C@]43C)[C@@H]12 (stereo not given in full)	4.19	4.46	4.61	4.51	4.30
C=C(C)[C@@H]1CC[C@]2(C(=O)OCCCn3cc(CCN)c4ccccc43)CC[C@]3(C)[C@H](C[C@@H](O)[C@@H]4[C@@]5(C)C(CC(=O)OC)OC(C)(C)C5CC[C@]43C)[C@@H]12 (stereo not given in full)	5.09	5.12	5.60	5.12	5.15
C=C(C)[C@@H]1CC[C@]2(C(=O)OCCCCCCCCCCn3ccnc3)CC[C@]3(C)[C@H](C[C@@H](O)[C@@H]4[C@@]5(C)C(CC(=O)OC)OC(C)(C)C5CC[C@]43C)[C@@H]12 (stereo not given in full)	4.44	4.65	5.17	4.85	4.85
C=C(C)[C@@H]1CC[C@]2(C(=O)OCCCCn3cc(CCN)c4ccccc43)CC[C@]3(C)[C@H](C[C@H]4OC(=O)C[C@@H](O)[C@]5(C)[C@@H]4[C@@]3(C)CC[C@H]5C(=C)C)[C@@H]12	4.93	5.17	5.99	5.18	5.06
C=C(C)[C@@H]1CC[C@]2(C(=O)OCCCCCCn3ccnc3)CC[C@]3(C)[C@H](C[C@H]4OC(=O)C[C@@H](O)[C@]5(C)[C@@H]4[C@@]3(C)CC[C@H]5C(=C)C)[C@@H]12	4.33	4.62	4.84	4.63	4.34
C=C(C)[C@@H]1CC[C@]2(C(=O)OCCCCCCn3cncn3)CC[C@]3(C)[C@H](C[C@@H](O)[C@@H]4[C@@]5(C)C(CC(=O)OC)OC(C)(C)C5CC[C@]43C)[C@@H]12 (stereo not given in full)	4.10	4.28	4.42	4.56	4.22
C=C(C)[C@@H]1CC[C@]2(C(=O)OCCCBr)CC[C@]3(C)[C@H](C[C@@H](O)[C@@H]4[C@@]5(C)C(CC(=O)OC)OC(C)(C)C5CC[C@]43C)[C@@H]12 (stereo not given in full)	4.01	4.39	4.54	4.32	4.15
C=C(C)[C@@H]1CC[C@]2(C(=O)OCCCCCn3cnc(C)c3)CC[C@]3(C)[C@H](C[C@@H](O)[C@@H]4[C@@]5(C)C(CC(=O)OC)OC(C)(C)C5CC[C@]43C)[C@@H]12 (stereo not given in full)	4.22	4.55	4.85	4.52	4.48
C=C(C)[C@@H]1CC[C@]2(C(=O)OCCCn3ccnc3C)CC[C@]3(C)[C@H](C[C@H]4OC(=O)C[C@@H](O)[C@]5(C)[C@@H]4[C@@]3(C)CC[C@H]5C(=C)C)[C@@H]12	4.33	4.67	4.84	4.80	4.61
C=C(C)[C@@H]1CC[C@]2(C(=O)OCCCCn3ccnc3)CC[C@]3(C)[C@H](C[C@@H](O)[C@@H]4[C@@]5(C)C(CC(=O)OC)OC(C)(C)C5CC[C@]43C)[C@@H]12 (stereo not given in full)	4.12	4.44	4.58	4.35	4.27
C=C(C)[C@@H]1CC[C@]2(C(=O)OCCCCn3cnc(C)c3)CC[C@]3(C)[C@H](C[C@H]4OC(=O)C[C@@H](O)[C@]5(C)[C@@H]4[C@@]3(C)CC[C@H]5C(=C)C)[C@@H]12	4.34	4.70	4.80	4.81	4.53
C=C(C)[C@@H]1CC[C@]2(C(=O)OCCCn3cncn3)CC[C@]3(C)[C@H](C[C@@H](O)[C@@H]4[C@@]5(C)C(CC(=O)OC)OC(C)(C)C5CC[C@]43C)[C@@H]12 (stereo not given in full)	4.09	4.50	4.53	4.36	4.24
C=C(C)[C@@H]1CC[C@]2(C(=O)OCCCn3cnc(C)c3)CC[C@]3(C)[C@H](C[C@@H](O)[C@@H]4[C@@]5(C)C(CC(=O)OC)OC(C)(C)C5CC[C@]43C)[C@@H]12 (stereo not given in full)	4.14	4.50	4.67	4.51	4.31
C=C(C)[C@@H]1CC[C@]2(C(=O)OCCCCn3ccnc3CC)CC[C@]3(C)[C@H](C[C@H]4OC(=O)C[C@@H](O)[C@]5(C)[C@@H]4[C@@]3(C)CC[C@H]5C(=C)C)[C@@H]12	4.04	4.71	4.84	4.92	4.79
C=C(C)[C@@H]1CC[C@]2(C(=O)OCCCn3ccnc3)CC[C@]3(C)[C@H](C[C@@H](O)[C@@H]4[C@@]5(C)C(CC(=O)OC)OC(C)(C)C5CC[C@]43C)[C@@H]12 (stereo not given in full)	4.14	4.46	4.56	4.45	4.25
C=C(C)[C@@H]1CC[C@]2(C(=O)OCCCn3ccnc3)CC[C@]3(C)[C@H](C[C@H]4OC(=O)C[C@@H](O)[C@]5(C)[C@@H]4[C@@]3(C)CC[C@H]5C(=C)C)[C@@H]12	4.31	4.26	< 3.70	4.61	4.05
C=C(C)[C@@H]1CC[C@]2(C(=O)OCCCCCCCCCCBr)CC[C@]3(C)[C@H](C[C@@H](O)[C@@H]4[C@@]5(C)C(CC(=O)OC)OC(C)(C)C5CC[C@]43C)[C@@H]12 (stereo not given in full)	4.05	4.46	4.82	4.78	4.82
C=C(C)[C@@H]1CC[C@]2(C(=O)OCCCCn3ccnc3CC)CC[C@]3(C)[C@H](C[C@@H](O)[C@@H]4[C@@]5(C)C(CC(=O)OC)OC(C)(C)C5CC[C@]43C)[C@@H]12 (stereo not given in full)	4.39	4.54	4.81	4.59	4.50
C=C(C)[C@@H]1CC[C@]2(C(=O)OCCCn3cncn3)CC[C@]3(C)[C@H](C[C@H]4OC(=O)C[C@@H](O)[C@]5(C)[C@@H]4[C@@]3(C)CC[C@H]5C(=C)C)[C@@H]12	4.29	4.35	< 3.70	4.47	3.85
C=C(C)[C@@H]1CC[C@]2(C(=O)O)CC[C@]3(C)[C@H](C[C@@H](O)[C@@H]4[C@@]5(C)C(CC(=O)OC)OC(C)(C)C5CC[C@]43C)[C@@H]12 (stereo not given in full)	< 3.70	< 3.70	< 3.70	3.99	< 3.70
C=C(C)[C@@H]1CC[C@]2(C(=O)OCCCCCCn3cncn3)CC[C@]3(C)[C@H](C[C@H]4OC(=O)C[C@@H](O)[C@]5(C)[C@@H]4[C@@]3(C)CC[C@H]5C(=C)C)[C@@H]12	3.99	4.61	4.62	4.25	4.71
C=C(C)[C@@H]1CC[C@]2(C(=O)OCCCCCCn3cnc(C)c3)CC[C@]3(C)[C@H](C[C@@H](O)[C@@H]4[C@@]5(C)C(CC(=O)OC)OC(C)(C)C5CC[C@]43C)[C@@H]12 (stereo not given in full)	4.48	4.60	4.89	4.74	4.75
C=C(C)[C@@H]1CC[C@]2(C(=O)OCCCn3ccnc3CC)CC[C@]3(C)[C@H](C[C@H]4OC(=O)C[C@@H](O)[C@]5(C)[C@@H]4[C@@]3(C)CC[C@H]5C(=C)C)[C@@H]12	4.33	4.67	4.78	4.91	4.57
C=C(C)[C@@H]1CC[C@]2(C(=O)OCCCCCn3ccnc3CC)CC[C@]3(C)[C@H](C[C@H]4OC(=O)C[C@@H](O)[C@]5(C)[C@@H]4[C@@]3(C)CC[C@H]5C(=C)C)[C@@H]12	4.30	4.84	5.21	4.90	4.89
C=C(C)[C@@H]1CC[C@]2(C(=O)OCCCCCCCCCCn3cncn3)CC[C@]3(C)[C@H](C[C@H]4OC(=O)C[C@@H](O)[C@]5(C)[C@@H]4[C@@]3(C)CC[C@H]5C(=C)C)[C@@H]12	4.33	4.53	4.84	4.70	4.44
C=C(C)[C@@H]1CC[C@]2(C(=O)OCCCCBr)CC[C@]3(C)[C@H](C[C@@H](O)[C@@H]4[C@@]5(C)C(CC(=O)OC)OC(C)(C)C5CC[C@]43C)[C@@H]12 (stereo not given in full)	4.09	4.34	4.56	4.27	4.14
C=C(C)[C@@H]1CC[C@]2(C(=O)OCCCn3ccnc3C)CC[C@]3(C)[C@H](C[C@@H](O)[C@@H]4[C@@]5(C)C(CC(=O)OC)OC(C)(C)C5CC[C@]43C)[C@@H]12 (stereo not given in full)	4.16	4.60	4.65	4.46	4.30
C=C(C)[C@@H]1CC[C@]2(C(=O)OCCCCCCCCCCn3cnc(C)c3)CC[C@]3(C)[C@H](C[C@H]4OC(=O)C[C@@H](O)[C@]5(C)[C@@H]4[C@@]3(C)CC[C@H]5C(=C)C)[C@@H]12	4.45	4.78	5.24	4.86	5.00
